According to patent US4508711A, “Cyclic pentapeptide displaying somatostatin antagonism and method of treatment of mammals therewith” (American Cyanamid Company, priority 1984, dated 1985):

How the values were obtained:
[1] = tested on: GH levels in the rat; assay: Growth hormone (GH) levels in NEMBUTAL-anesthetized, stimulated rats (RIA); format: in vivo; conditions: mean ± SE
Method: (§1) In this evaluation the procedures described by W. A. Murphy et al. Endocrinology 109:491-495 (1980), were employed.
In growth hormone (GH) experiments, male rats (Charles Rivers) were anesthetized with NEMBUTAL® (5 mg per 100 g/BW) which also served to maintain stimulated plasma GH levels. Exactly 30 minutes after the rats were anesthetized, 0.5 mL of saline or the test peptide in saline was administered as a sc bolus. A 1 mL blood sample was drawn from the jugular vein 15 minutes after the injection. For examining blocking effects of the analog on somatostatin, the cyclic peptide was given 5 minutes prior to somatostatin. GH levels were determined using NIADDKD rat GH RIA components.

[2] = tested on: glucagon levels in hepatic portal blood; assay: Glucagon levels in hepatic portal blood of fasted rats (RIA); format: in vivo, rat
Method: as §1
(§2) For measurement of effects on insulin and glucagon levels, rats were fasted 27-30 hours and anesthetized with NEMBUTAL® (5 mg per 100 g body wt). Exactly 21 minutes after NEMBUTAL® injection 0.5 mL of saline or saline containing test peptide was injected into the jugular vein over a 1 minute period. Five minutes later, 3.5 mL of blood were quickly drawn from the hepatic portal vein after rapid laparotomy. Blocking effects of analog on exogenous somatostatin were examined by simultaneous injection of both peptides. Plasma insulin levels were determined using matched insulin RIA kits purchased from Cambridge Nuclear, Billerica, MA. Plasma glucagon was determined using Unger 30K antibody and ^125 I-glucagon (Cambridge Nuclear) as the tracer.

[3] = tested on: insulin levels in hepatic portal blood; assay: Insulin levels in hepatic portal blood of fasted rats (RIA); format: in vivo, rat
Method: as §1, §2

## C[C@H](N)C(=O)NCC(=O)N[C@H]1CSSC[C@@H](C(=O)O)NC(=O)[C@H](CO)NC(=O)[C@H]([C@@H](C)O)NC(=O)[C@H](Cc2ccccc2)NC(=O)[C@H]([C@@H](C)O)NC(=O)[C@H](CCCCN)NC(=O)[C@H](Cc2c[nH]c3ccccc23)NC(=O)[C@H](Cc2ccccc2)NC(=O)[C@H](Cc2ccccc2)NC(=O)[C@H](CC(N)=O)NC(=O)[C@H](CCCCN)NC1=O [Somatostatin]
[1]; Table I Experiment 1, fed rats, 0.2 μg/100 g body weight sc, blood 15 min after injection, saline 277 ± 40
  GH: 146 ± 14 ng/mL
[1]; Table I Experiment 1, fed rats, 0.6 μg/100 g body weight sc, blood 15 min after injection, saline 277 ± 40
  GH: 78 ± 26 ng/mL
[1]; Table I Experiment 2, fasted rats, 0.4 μg/100 g body weight, saline 403 ± 85
  GH: 107 ± 13 ng/mL
[2]; Table III Experiment 1, fasted rats, 0.4 μg/100 g iv, portal blood 5 min later, saline 80 ± 5
  Glucagon (Mean ± SE): 64 ± 3 pg/mL
[2]; Table III Experiment 1, fasted rats, 2.0 μg/100 g iv, saline 80 ± 5
  Glucagon (Mean ± SE): 46 ± 4 pg/mL
[2]; Table III Experiment 1, second saline set, fasted rats, 1.0 μg/100 g iv, saline 94 ± 9
  Glucagon (Mean ± SE): 78 ± 7 pg/mL
[2]; Table III Experiment 2, fasted rats, 1.0 μg/100 g iv, saline 45 ± 3
  Glucagon (Mean ± SE): 18 ± 7 pg/mL
[3]; Table III Experiment 1, fasted rats, 0.4 μg/100 g iv, portal blood 5 min later, saline 67 ± 11
  Insulin (Mean ± SE): 57 ± 3 μU/mL
[3]; Table III Experiment 1, fasted rats, 2.0 μg/100 g iv, saline 67 ± 11
  Insulin (Mean ± SE): 28 ± 11 μU/mL
[3]; Table III Experiment 1, second saline set, fasted rats, 1.0 μg/100 g iv, saline 46 ± 5
  Insulin (Mean ± SE): 11 ± 2 μU/mL
